From ChEMBL document CHEMBL2074409, “P-glycoprotein plays a role in the oral absorption of BMS-387032, a potent cyclin-dependent kinase 2 inhibitor, in rats” (Cancer Chemother Pharmacol, 2004) come the findings set out here.

The data set deals with ATP-dependent translocase ABCB1 (Homo sapiens, UniProt P08183). The experiment in a line: TP_TRANSPORTER: transepithelial transport of BMS387032 at a concentration of 200uM in Caco-2 cells. The conditions noted are these: caco-2, 200 µM. The format is functional, cell-based. On the technique in general: Caco-2 monolayers are a common model of the intestinal barrier.
Sequence of ATP-dependent translocase ABCB1 (P08183 whole entry): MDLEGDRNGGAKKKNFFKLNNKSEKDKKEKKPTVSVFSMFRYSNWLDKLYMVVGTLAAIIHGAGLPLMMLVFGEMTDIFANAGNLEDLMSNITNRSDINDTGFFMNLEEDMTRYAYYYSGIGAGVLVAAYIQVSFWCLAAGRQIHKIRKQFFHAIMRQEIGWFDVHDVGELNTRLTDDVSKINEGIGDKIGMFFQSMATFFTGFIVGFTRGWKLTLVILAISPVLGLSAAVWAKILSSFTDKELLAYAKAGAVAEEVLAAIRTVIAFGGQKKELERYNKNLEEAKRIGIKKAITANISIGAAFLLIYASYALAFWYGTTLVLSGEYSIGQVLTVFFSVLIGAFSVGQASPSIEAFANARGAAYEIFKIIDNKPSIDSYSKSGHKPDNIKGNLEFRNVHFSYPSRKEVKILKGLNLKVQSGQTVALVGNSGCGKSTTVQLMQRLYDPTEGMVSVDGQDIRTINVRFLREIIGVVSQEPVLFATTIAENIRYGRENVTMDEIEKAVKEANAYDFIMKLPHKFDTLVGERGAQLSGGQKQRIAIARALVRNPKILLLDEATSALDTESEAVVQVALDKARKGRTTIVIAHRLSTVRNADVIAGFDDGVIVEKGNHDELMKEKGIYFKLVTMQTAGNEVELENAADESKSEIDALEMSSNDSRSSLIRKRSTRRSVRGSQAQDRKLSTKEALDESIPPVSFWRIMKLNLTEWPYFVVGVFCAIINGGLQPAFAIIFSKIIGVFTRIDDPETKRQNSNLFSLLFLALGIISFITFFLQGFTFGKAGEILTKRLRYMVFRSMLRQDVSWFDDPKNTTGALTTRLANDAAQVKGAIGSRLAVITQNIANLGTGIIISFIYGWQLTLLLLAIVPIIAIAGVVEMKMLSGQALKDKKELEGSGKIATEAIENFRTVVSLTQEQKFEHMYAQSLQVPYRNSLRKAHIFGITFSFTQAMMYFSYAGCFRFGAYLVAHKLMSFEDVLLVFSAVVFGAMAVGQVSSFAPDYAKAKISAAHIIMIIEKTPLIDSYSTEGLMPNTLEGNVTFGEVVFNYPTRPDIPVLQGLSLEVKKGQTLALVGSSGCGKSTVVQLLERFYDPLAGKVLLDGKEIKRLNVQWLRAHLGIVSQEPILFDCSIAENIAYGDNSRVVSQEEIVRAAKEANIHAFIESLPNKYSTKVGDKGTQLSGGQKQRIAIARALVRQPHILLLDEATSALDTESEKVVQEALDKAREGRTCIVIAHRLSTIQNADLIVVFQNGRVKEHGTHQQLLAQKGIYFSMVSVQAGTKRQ

Consider `CC(C)(C)c1cnc(CSc2cnc(NC(=O)C3CCNCC3)s2)o1` [BMS-387032], for which the Activity result is “substrate [+]”.
